Source: ChEMBL document CHEMBL3507680, “University of Dundee, Gates Library screen for HepG2 cell viability”

Assay: Human HepG2 cell viability assay in 384 well format
Format: toxicity, cell-based
Set-up: dose 125 nL, time 70.5 hour; cytotoxicity at 70.5 h: concentration not given beside the values
Conditions: HepG2 cells, read-out: Inhibition

| SMILES | cytotoxicity at 70.5 h [%] |
| --- | --- |
| O=C1C(N2CC[C@@H](O)C2)CCCN1Cc1cccc(C(F)(F)F)c1 (stereo partly specified) | -18.9 |
| COC1COC2(CCN(C(=O)c3ccccc3F)CC2)C1 (stereo unspecified) | -4.84 |
| CCS(=O)(=O)CC(=O)NC1(c2ccc(Cl)c(Cl)c2)CC1 | -2.35 |
| Cc1ncsc1CN1CC[C@H]2C(=O)N(c3ccccc3)CCO[C@H]2C1 | -9.01 |
| O=C(CC1CC1)N[C@@H]1CN(Cc2cccnc2)C[C@@H]2CCCO[C@@H]21 | -4.07 |
| CN(CCOCC1CC1)C(=O)Cn1cccc(C(F)(F)F)c1=O | -1.06 |
| CSc1nccc(N2CCC3(CCCN(CC4CC4)C3)C2)n1 (stereo unspecified) | -3.08 |
| CCN1C(=O)C(C)(C)c2cc(NC(=O)c3ccco3)ccc21 | -7.99 |
| Cc1oncc1S(=O)(=O)N1CCCC(C)(Cc2ccc3c(c2)OCO3)C1 (stereo unspecified) | 14.3 |
| O=C1CCCN1CCN1CCC(c2ccn[nH]2)CC1 | -7.63 |
| CCCOc1cc(C)ccc1NC(=O)NCCNC(C)=O | 3.53 |
| COCCN(Cc1ccco1)Cc1nc(-c2ccccc2)no1 | 19.2 |
| Cc1ccc(C(=O)N(C)Cc2cscn2)c(=O)[nH]1 | -12.9 |
| CC(C)[C@H](NS(C)(=O)=O)C(=O)NCc1cc(-c2ccccc2)nn1C | 7.09 |
| Cc1n[nH]c(C2CN(CC(=O)NCCc3ccccc3C)CCO2)n1 (stereo unspecified) | -109 |
| CC(=O)N1CC[C@H]2OCC[C@@]2(C(=O)NCc2ccco2)C1 | 1.98 |
| COc1ccccc1[C@@H]1CN(CC(=O)N2CCCCC2)C[C@H]1C(=O)O | -7.8 |
| CCCc1nc(CN(CC)Cc2ccoc2)no1 | -7.87 |
| FC(F)(F)c1cc(C2CCNCC2)nc(-c2ccsc2)n1 | -11.8 |
| COCCCNC1N=C(n2nc(C)cc2C)Nc2sc3c(c21)CCCC3 (stereo unspecified) | 8.46 |
| Cc1nc(C2(NCC(=O)NC(=O)NCC(F)(F)F)CCCCC2)no1 | 13.9 |

| SMILES | cytotoxicity at 70.5 h [%] |
| --- | --- |
| CN(Cc1ccc2c(c1)OCO2)C(=O)c1ccc(C2CCCO2)s1 (stereo unspecified) | -6.85 |
| CC(C)NC(=O)c1sccc1N(C)S(=O)(=O)c1ccc(Cl)cc1 | -8.11 |
| c1cnc(N2CCC3(CCN(CC4CC4)CC3)CC2)nc1 | -15.1 |
| Cn1nc(C(=O)N2CCOCC2)cc1C(=O)Nc1cc(Cl)cc(Cl)c1 | -0.911 |
| CNC(=O)CCc1cc(C)nc(C2CCCN2)n1 (stereo unspecified) | -12.5 |
| Cn1cc(CC2CCN(C(=O)NCCc3cccc(O)c3)C2)cn1 (stereo unspecified) | -12.6 |
| O=C(c1cccc(Oc2ccccc2)c1)N1CCCC(O)(CO)CC1 (stereo unspecified) | -8.12 |
| Cc1nc(C(C)C)sc1C(=O)N1CCC(C(N)=O)CC1 | 6 |
| CN1CCO[C@@H]2CN(S(=O)(=O)c3cccnc3)C[C@@H]2C1 | 2.04 |
| CCNC(=O)[C@@H]1C[C@H](n2cc(CC3CCCCC3)nn2)CN1 | -7.89 |
| CCn1cc(CN(C)c2nc(C)c3ccc(S(C)(=O)=O)cc3n2)cn1 | -5.64 |
| CCCc1cnc(C)nc1NCCc1nc(C)cc(=O)[nH]1 | -9.64 |
| CCc1nc(-c2cccc(C(=O)O)c2)no1 | 16.3 |
| Cc1noc(C)c1CNc1cccc(C(=O)N(C)c2ccccc2)c1 | 14.2 |
| CN(Cc1ccco1)C(=O)c1cccc(N2CCCC2=O)c1 | -8.03 |
| CN(C)Cc1cn2c(n1)CN(C(=O)Cc1ccsc1)CC2 | -0.503 |
| CCN(CC)C(=O)Cn1cc(C(=O)NCCCc2scnc2C)nn1 | -4.02 |
| Cc1csc(N2CCN(C(=O)CCc3nccs3)CC2)n1 | -2.43 |
| Cn1cnc2c1C(C(=O)N1CCCO1)N(C(=O)c1ccccc1)CC2 (stereo unspecified) | -9.14 |
| O=C(NCCOc1ccc2c(c1)CCC2)N1CCS(=O)(=O)CC1 | 23.8 |
